ChEMBL document CHEMBL5465560, “Selectivity Literature for EUbOPEN Chemogenomic Library” (2024)
pIC50: −log10 of the molar value.

Assays:
[1] = molecular target: T1, Mitogen-activated protein kinase kinase kinase 19 (Homo sapiens) (UniProt Q56UN5); test: Selectivity interaction (Ambit KINOMEscan and KiNATiv profiling in Jurkat cells) EUB0000090b MAP3K19; type: cell-based; conditions: at 1 µM
T1 sequence (whole entry): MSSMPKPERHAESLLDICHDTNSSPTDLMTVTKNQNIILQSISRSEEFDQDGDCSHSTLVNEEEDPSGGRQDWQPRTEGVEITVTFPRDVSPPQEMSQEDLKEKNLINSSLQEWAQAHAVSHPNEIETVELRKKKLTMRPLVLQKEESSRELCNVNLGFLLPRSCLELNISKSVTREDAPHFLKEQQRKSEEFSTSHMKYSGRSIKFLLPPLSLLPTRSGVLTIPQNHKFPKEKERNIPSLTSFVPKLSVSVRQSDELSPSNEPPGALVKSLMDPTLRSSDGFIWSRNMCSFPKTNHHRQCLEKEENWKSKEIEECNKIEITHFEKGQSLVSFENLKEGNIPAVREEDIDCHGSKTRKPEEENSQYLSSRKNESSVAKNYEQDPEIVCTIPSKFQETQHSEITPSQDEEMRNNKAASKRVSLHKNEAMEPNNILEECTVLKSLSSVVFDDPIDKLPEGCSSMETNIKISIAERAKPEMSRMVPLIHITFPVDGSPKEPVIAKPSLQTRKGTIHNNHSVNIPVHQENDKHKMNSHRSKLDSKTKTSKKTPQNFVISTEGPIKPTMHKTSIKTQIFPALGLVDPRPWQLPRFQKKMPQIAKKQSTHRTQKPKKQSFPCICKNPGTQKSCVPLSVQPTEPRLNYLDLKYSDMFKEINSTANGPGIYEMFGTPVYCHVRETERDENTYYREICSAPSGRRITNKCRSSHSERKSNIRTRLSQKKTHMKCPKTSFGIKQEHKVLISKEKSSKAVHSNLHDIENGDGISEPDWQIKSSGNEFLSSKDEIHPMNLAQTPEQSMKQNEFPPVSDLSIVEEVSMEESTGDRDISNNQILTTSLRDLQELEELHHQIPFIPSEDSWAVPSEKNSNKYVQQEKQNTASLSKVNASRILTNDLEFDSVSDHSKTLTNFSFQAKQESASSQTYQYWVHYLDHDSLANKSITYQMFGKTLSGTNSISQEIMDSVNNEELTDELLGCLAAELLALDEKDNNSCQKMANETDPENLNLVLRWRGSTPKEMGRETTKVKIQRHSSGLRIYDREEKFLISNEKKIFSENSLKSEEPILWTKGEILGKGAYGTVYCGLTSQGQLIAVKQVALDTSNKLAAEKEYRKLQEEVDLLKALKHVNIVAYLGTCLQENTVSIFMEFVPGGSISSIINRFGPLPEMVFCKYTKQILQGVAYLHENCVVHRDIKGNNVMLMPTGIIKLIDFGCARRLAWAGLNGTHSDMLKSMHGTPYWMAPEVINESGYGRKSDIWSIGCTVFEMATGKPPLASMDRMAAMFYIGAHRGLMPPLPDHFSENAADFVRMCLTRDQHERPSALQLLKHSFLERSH

[2] = molecular target: Phosphatidylinositol 4-phosphate 5-kinase type-1 alpha (Homo sapiens) (UniProt Q99755); test: Selectivity interaction (Ambit KINOMEscan and KiNATiv profiling in Jurkat cells) EUB0000090b PIP5K1A; type: cell-based; conditions: at 1 µM
[3] = molecular target: T2, Inhibitor of nuclear factor kappa-B kinase subunit alpha (Homo sapiens) (UniProt O15111); test: Selectivity interaction (KinomeScan (DiscoverX)) EUB0000655a CHUK; conditions: at 10 µM
T2 sequence (whole entry): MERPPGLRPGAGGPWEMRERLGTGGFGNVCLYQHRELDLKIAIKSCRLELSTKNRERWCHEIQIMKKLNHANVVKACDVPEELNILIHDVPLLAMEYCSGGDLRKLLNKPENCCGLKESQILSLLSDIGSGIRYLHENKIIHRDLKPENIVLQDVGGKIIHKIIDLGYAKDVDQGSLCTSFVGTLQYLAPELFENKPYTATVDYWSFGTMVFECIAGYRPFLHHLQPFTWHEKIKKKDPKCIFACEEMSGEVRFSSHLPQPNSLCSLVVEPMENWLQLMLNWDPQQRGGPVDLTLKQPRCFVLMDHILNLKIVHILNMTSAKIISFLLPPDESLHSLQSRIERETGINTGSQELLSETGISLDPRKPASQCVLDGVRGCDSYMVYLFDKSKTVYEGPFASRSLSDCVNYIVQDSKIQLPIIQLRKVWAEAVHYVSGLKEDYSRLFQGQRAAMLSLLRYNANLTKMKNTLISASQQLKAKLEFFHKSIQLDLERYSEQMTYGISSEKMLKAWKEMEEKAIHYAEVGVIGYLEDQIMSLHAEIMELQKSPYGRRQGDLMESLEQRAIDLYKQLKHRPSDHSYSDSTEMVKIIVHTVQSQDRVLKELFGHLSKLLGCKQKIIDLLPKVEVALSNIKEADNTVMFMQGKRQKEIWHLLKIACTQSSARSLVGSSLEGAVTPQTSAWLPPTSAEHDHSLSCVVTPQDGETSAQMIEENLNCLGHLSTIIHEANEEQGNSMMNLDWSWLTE

[4] = molecular target: Tyrosine-protein kinase SYK (Homo sapiens, UniProt P43405)
[5] = test system: Tyrosine-protein kinase ABL1 (Homo sapiens), P00519 [F317L]; test: Selectivity interaction (KinomeScan (DiscoverX)) EUB0000229b ABL1; conditions: at 1 µM
[6] = molecular target: T3, Dual specificity mitogen-activated protein kinase kinase 7 (Homo sapiens) (UniProt O14733); test: Selectivity interaction (KinomeScan (DiscoverX)) EUB0000092b MAP2K7; conditions: at 10 µM
T3 sequence (whole entry): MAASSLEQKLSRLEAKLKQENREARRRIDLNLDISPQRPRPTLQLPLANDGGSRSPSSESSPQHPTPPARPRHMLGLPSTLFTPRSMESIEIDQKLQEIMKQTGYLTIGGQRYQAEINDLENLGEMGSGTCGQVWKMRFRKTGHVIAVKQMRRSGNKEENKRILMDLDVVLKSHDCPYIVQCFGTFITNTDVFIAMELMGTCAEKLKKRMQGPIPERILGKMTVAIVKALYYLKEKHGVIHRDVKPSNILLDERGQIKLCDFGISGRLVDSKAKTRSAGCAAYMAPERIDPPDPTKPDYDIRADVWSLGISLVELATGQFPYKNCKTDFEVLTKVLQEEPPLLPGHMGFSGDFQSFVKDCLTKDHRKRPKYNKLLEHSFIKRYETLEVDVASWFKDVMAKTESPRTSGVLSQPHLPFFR

Chain of Tyrosine-protein kinase ABL1 (Homo sapiens), P00519 [F317L] (P00519 whole entry F317L): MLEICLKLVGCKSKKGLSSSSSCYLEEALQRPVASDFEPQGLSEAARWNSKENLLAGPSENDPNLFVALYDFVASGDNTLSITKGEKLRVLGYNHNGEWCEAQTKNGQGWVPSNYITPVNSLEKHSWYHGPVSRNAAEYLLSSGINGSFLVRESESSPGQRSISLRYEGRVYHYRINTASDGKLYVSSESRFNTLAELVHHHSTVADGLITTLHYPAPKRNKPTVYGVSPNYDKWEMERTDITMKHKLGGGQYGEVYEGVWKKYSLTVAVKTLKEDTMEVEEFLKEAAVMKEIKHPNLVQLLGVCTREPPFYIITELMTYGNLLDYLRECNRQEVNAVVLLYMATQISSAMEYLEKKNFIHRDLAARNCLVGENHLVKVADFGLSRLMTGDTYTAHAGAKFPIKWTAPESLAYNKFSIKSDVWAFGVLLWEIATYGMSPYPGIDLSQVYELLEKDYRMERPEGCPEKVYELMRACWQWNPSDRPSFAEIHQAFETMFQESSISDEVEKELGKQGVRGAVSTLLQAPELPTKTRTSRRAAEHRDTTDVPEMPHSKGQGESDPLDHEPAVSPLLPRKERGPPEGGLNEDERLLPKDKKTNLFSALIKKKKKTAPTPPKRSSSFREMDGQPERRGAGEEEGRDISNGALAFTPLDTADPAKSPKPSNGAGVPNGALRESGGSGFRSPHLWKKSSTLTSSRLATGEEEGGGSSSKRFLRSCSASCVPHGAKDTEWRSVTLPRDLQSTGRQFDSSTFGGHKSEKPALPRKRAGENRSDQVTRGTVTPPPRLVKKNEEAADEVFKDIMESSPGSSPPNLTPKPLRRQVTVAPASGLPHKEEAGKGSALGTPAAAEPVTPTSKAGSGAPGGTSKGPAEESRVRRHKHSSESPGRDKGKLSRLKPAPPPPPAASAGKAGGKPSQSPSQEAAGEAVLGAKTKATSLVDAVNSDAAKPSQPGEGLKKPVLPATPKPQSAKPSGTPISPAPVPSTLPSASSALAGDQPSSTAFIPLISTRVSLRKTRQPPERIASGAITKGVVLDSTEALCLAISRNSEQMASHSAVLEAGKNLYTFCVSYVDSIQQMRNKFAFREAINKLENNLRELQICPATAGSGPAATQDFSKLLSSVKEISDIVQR
Chain of Phosphatidylinositol 4-phosphate 5-kinase type-1 alpha (Homo sapiens) (Q99755 whole entry): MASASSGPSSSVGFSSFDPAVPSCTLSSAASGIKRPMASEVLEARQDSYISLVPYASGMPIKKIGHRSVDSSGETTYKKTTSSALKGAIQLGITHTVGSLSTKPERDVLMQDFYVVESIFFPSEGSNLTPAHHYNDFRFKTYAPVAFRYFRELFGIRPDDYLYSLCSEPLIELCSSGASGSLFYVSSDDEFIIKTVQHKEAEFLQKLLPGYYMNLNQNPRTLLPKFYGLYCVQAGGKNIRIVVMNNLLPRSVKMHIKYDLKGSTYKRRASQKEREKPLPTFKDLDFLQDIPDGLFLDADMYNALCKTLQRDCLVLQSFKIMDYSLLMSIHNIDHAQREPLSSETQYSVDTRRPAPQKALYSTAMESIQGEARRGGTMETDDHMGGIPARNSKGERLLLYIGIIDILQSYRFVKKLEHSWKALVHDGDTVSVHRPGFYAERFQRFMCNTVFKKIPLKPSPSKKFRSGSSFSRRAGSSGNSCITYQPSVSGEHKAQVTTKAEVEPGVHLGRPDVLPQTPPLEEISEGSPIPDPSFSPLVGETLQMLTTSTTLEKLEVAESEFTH

CN(C)C/C=C/C(=O)Nc1ccc(C(=O)N2CCCC(Nc3ncc(Cl)c(-c4c[nH]c5ccccc45)n3)C2)cc1 (stereo unspecified) gave a % of control [1] of 98% and a % of control [2] of 78%.
Work on CN(C)CCOc1ccc(-c2nc(-c3ccncc3)c(-c3ccc4c(c3)CC/C4=N\O)[nH]2)cc1 yielded a % of control [3] of 92%.
Compound CCc1cccc(CC)c1NC(=O)c1nn(C)c2c1CCc1cnc(Nc3ccc(C(=O)NC4CCN(C)CC4)cc3OC(F)(F)F)nc1-2 has a pIC50 [4] of under 5.00.
Compound COc1cc(N(C)c2ccnc3ccc(C(F)(F)F)cc23)cc(OC)c1OC has a % binding [5] of 90%.
In the case of CCC(=O)N1CCN(c2ccc(-n3c(=O)ccc4cnc5ccc(-c6cnc7ccccc7c6)cc5c43)cc2C(F)(F)F)CC1, the % of control [6] was 100%.
